According to PMC8080620, “Coiled-coil heterodimers with increased stability for cellular regulation and sensing SARS-CoV-2 spike protein-mediated cell fusion” (Scientific Reports, 2021):
Where a name gives a salt, the structure may show the parent alone.

What was measured:
[1] = tested on: SARS-CoV-2 S protein-mediated cell–cell fusion; format: cell-based, human
[2] = CD thermal denaturation scans (midpoint Tm); format: physicochemical; conditions: CC of the peptide with N8 compared with N8:N7
Experimental: CD measurements were performed with a ChiraScan instrument (Applied Photophysics, UK) equipped with a Peltier thermal control block (Melcor, NJ, Laird Technologies). The final concentrations of individual peptides were […] in Tris buffer (50 mM Tris–HCl, pH 7.5, 150 mM NaCl, and 1 mM TCEP). The mixture also contained a 20 μM concentration of each peptide. All experiments were performed in a quartz cuvette (Hellma, Germany) with a path length of 1 mm. CD spectra were measured every 1 nm from 200 to 280 nm with a bandwidth of 1 nm and 0.5 s integration time. The results are the average of three scans. Temperature denaturation scans were performed by measuring the CD signal at 222 nm from 0 to 95 °C in 1 °C increments at a rate of 1 °C/min. The actual sample temperatures were measured directly in the cuvette using a temperature probe. The CD spectrum was measured at 95 °C and at 20 °C after rapid cooling.

[3] = tested on: reconstituted CC-split luciferase in HEK293T cells; experiment: CC-split luciferase displacement by externally added synthetic displacer peptide; format: cell-based, human; conditions: for Displacement of cognate peptide from the N8:N7 split luciferase by added synthetic peptide: nLuc:N8 and cLuc:N7, peptide 0–50 µM in DOTAP for 2 h (Fig. S6B)
[4] = tested on: CC-split transcription factor (TALE-A:CC with CC:VP16) in HEK293T cells; experiment: CC-split transcription factor reconstitution and displacement (TALE10x-Pmin-fLuc reporter); format: cell-based, human; conditions: TALE-A:N8 with CC:VP16, displacer plasmid 0-50 or 0–70 ng, 48 h after transfection
[5] = tested on: reconstituted CC-split luciferase in HEK293T cells; experiment: CC-split luciferase attenuation by co-expressed displacer peptide; format: cell-based, human
[6] = SEC-MALS multimerization state; format: physicochemical; conditions: peptides 200 µM in 50 mM Tris–HCl pH 7.5, 150 mM NaCl, 10% glycerol
Experimental: A Waters e2695 HPLC system coupled with a 2489 UV detector (Waters, MA) and a Dawn 8 + multiple-angle light scattering detector (Wyatt, CA) was used for SEC-MALS experiments. Peptides (200 μM in 50 mM Tris–HCl with a pH of 7.5, 150 mM NaCl, and 10% glycerol) were filtered using Durapore 0.1 μm centrifuge filters (Merck Millipore, Ireland) before being injected onto the Biosep SEC-S2000 column (Phenomenex, CA), with the exception of the peptide N2, which was injected in a Superdex 30 increase column (GE, IL). The mobile phases used for the separations were 50 mM Tris–HCl, pH 7.5, 150 mM NaCl and 50 mM Tris–HCl, pH 7.5, 500 mM NaCl for the Biosep SEC-S2000 column and the Superdex 30 increase column, respectively. The injection volume was 50 μl, and the flow rate was 0.5 ml/min. Data analysis was carried out with Astra 7.0 software (Wyatt, CA) utilizing the theoretical extinction coefficient calculated by ProtParam.

P6A [7] = biological target: T1, P6A (synthetic construct, N-terminal acetylation; C-terminal amidation); experiment: ITC
T1 chain: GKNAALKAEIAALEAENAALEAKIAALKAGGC

P6A [8] = biological target: T2, P6A (N-terminal acetylation; C-terminal amidation); experiment: CD thermal denaturation; 20 µM each peptide; CD signal at 222 nm, 0 to 95 °C; 50 mM Tris-HCl pH 7.5, 150 mM NaCl, 1 mM TCEP; midpoint Tm from a thermodynamic model fit; conditions: both partners purified
T2 chain: T1 chain

P8A [9] = biological target: T3, P8A (synthetic construct, N-terminal acetylation; C-terminal amidation); experiment: ITC
T3 chain: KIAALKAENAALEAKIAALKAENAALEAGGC

P8A [10] = biological target: T4, P8A (N-terminal acetylation; C-terminal amidation); experiment: CD thermal denaturation; 20 µM each peptide; CD signal at 222 nm, 0 to 95 °C; 50 mM Tris-HCl pH 7.5, 150 mM NaCl, 1 mM TCEP; midpoint Tm from a thermodynamic model fit; conditions: both partners purified
T4 chain: T3 chain

[11] = biological target: the molecule itself; experiment: SEC-MALS; peptides 200 µM, alone or as equimolar mixture; Biosep SEC-S2000 column; 50 mM Tris-HCl pH 7.5, 150 mM NaCl
N6 = biological target: T5, N6 (synthetic construct, N-terminal acetylation; C-terminal amidation); experiment: ITC
T5 chain: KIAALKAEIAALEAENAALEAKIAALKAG

N8 = biological target: T6, N8 (synthetic construct, N-terminal acetylation; C-terminal amidation); experiment: ITC
T6 chain: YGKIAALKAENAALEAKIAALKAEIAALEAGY

CN(C)C(=O)COC(=O)Cc1ccc(OC(=O)c2ccc(NC(=N)N)cc2)cc1 [Camostat, camostat mesylate]
Syncytia formation, luciferase activity of mixture of donor and acceptor cells [1]: reduced the amount of formed syncytia

EIQQLEE KNSQLKQ EISQLEE KNQELKY G [P7SN, reference compound]
midpoint Tm of N-P-CCs lower than N-CCs [2]: more than 10 °C
Displacement of cognate peptide from the N8:N7 split luciferase by added synthetic peptide ([3]; HEK293T): failed to displace the cognate peptide from the N8:N7 split luciferase as efficiently

SPED EIQALEE KNAQLKQ EIAALEE KNQALKY G [P7, reference compound]
midpoint Tm of N-P-CCs lower than N-CCs [2]: more than 10 °C
Attenuation of CC-split transcription activator assembly by co-expressed NLS-tagged CC-displacer peptide [4]: failed to prevent the reconstitution of a functional transcription as efficiently
Displacement of cognate peptide from the N8:N7 split luciferase by added synthetic peptide ([3]; HEK293T): failed to displace the cognate peptide from the N8:N7 split luciferase as efficiently

Y EIAALEA KIAALKA KNAALKA EIAALEA GC [N5]
N6:P5 split luciferase activity with co-expressed displacer peptide [5]: attenuated N6:P5 split luciferase activity
Displacement of cLuc:P5 from the N6:P5 split luciferase by added synthetic peptide ([3]; HEK293T, nLuc:N6 and cLuc:P5, […]): effectively displaced cLuc:P5

Y EIAALEA KNAALKA EIAALEA KIAALKA GC [N7]
Competition of co-expressed displacer peptide with N8:N7 CC split luciferase ([5]; HEK293T, plasmid expressing displacer 0, 80, 155 ng, 48 h after transfection): failed to effectively compete
Attenuation of CC-split transcription activator assembly by co-expressed NLS-tagged CC-displacer peptide [4]: weakened the transcription activator assembly most efficiently
Luciferase activity of CC-split luciferase after addition of synthetic CC-displacer peptide ([3]; […], peptide in DOTAP for 2 h, 48 h after transfection): debilitated CC-split luciferase assembly most efficiently

YG EIAALEA KNAALKA EIAALEA KNAALKA GC [P7A]
midpoint Tm of N-P-CCs lower than N-CCs [2]: more than 10 °C
Multimerization state in solution [6]: monomers
Attenuation of CC-split transcription activator assembly by co-expressed NLS-tagged CC-displacer peptide [4]: failed to prevent the reconstitution of a functional transcription as efficiently
Displacement of cognate peptide from the N8:N7 split luciferase by added synthetic peptide ([3]; HEK293T): failed to displace the cognate peptide from the N8:N7 split luciferase as efficiently

YG ENAALEA KIAALKA KNAALKA EIAALEA GC [P5A]
Multimerization state in solution [6]: monomers

YG KIAALKA ENAALEA KIAALKA ENAALEA GGC [P8A]
Multimerization state in solution [6]: monomers

YG KNAALKA EIAALEA ENAALEA KIAALKA GGC [P6A]
Multimerization state in solution [6]: monomers

Ac-ENAALEAKIAALKAKNAALKAEIAALEA-NH2 [P5A]
Kd (P6A [7]): 4 nM
Tm (P6A [8]): 57 °C

Ac-GEIAALEAKNAALKAEIAALEAKNAALKAGC-NH2 [P7A]
Kd (P8A [9]): 19 nM
Tm (P8A [10]): 64 °C

Ac-KIAALKAEIAALEAENAALEAKIAALKAG-NH2 [N6]
stoichiometry N [11]: 2

Ac-GEIAALEAKIAALKAKNAALKAEIAALEAGY-NH2 [N5]
Kd (N6): 1 nM
stoichiometry N [11]: 2

Ac-YGKIAALKAENAALEAKIAALKAEIAALEAGY-NH2 [N8]
stoichiometry N [11]: 2

Ac-GEIAALEAKNAALKAEIAALEAKIAALKAGY-NH2 [N7]
Kd (N8): 10 nM
stoichiometry N [11]: 2
